Measured values: ChEMBL document CHEMBL1152349, “Optimization of 2-piperidin-4-yl-acetamides as melanin-concentrating hormone receptor 1 (MCH-R1) antagonists: Designing out hERG inhibition” (Bioorg Med Chem Lett, 2009)
Values belong to the molecule of their own block, whether it stands above or below them.

Tests used:
[1] = biological target: T1, Melanin-concentrating hormone receptor 1 (Homo sapiens, UniProt Q99705); assay: Displacement of [125I]MCH from human MCHR1 expressed in HEK293 cells; format: cell-based
[2] = Dissociation constant, pKa by pressure assisted capillary electrophoresis; format: physicochemical
[3] = biological target: T1, Melanin-concentrating hormone receptor 1; assay: Antagonist activity at human MCHR1 expressed in HEK293 cells assessed as [35S]GTPgammaS accumulation; format: functional, cell-based
Mus musculus = assay: Antiobesity activity in DIO mouse model assessed as reduction in weight at 50 umol/kg, po once daily after 21 days; format: functional; design: scale not given: the % may be the effect or the level left
[4] = biological target: T2, Voltage-gated inwardly rectifying potassium channel KCNH2 (Homo sapiens, UniProt Q12809); assay: Inhibition of human ERG expressed in CHO cells by patch clamp assay; format: cell-based
[5] = biological target: Melanin-concentrating hormone receptor 2 (Homo sapiens, UniProt Q969V1); assay: Displacement of [125I]MCH from human MCHR2 expressed in CHO cells; format: cell-based
[6] = biological target: Sodium channel protein type 5 subunit alpha (Homo sapiens, UniProt Q14524); assay: Inhibition of NaV1.5 sodium channel expressed in CHO cells by patch clamp assay; format: cell-based
Liver microsomes = assay: Intrinsic clearance in human liver microsomes; format: ADME, Microsome
[7] = biological target: T2, Voltage-gated inwardly rectifying potassium channel KCNH2; assay: Inhibition of human ERG activation expressed in CHO cells by rubidium efflux assay; format: cell-based

T1 sequence (Q99705 whole entry): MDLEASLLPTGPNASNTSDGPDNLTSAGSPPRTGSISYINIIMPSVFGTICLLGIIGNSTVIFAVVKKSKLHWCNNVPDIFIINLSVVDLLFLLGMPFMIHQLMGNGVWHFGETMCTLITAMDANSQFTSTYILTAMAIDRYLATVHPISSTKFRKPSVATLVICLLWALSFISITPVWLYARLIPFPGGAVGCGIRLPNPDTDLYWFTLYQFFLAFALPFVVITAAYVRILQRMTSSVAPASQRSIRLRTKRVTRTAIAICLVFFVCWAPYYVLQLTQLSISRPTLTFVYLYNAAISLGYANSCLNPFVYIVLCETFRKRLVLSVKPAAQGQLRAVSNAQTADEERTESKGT
T2 sequence (Q12809 whole entry): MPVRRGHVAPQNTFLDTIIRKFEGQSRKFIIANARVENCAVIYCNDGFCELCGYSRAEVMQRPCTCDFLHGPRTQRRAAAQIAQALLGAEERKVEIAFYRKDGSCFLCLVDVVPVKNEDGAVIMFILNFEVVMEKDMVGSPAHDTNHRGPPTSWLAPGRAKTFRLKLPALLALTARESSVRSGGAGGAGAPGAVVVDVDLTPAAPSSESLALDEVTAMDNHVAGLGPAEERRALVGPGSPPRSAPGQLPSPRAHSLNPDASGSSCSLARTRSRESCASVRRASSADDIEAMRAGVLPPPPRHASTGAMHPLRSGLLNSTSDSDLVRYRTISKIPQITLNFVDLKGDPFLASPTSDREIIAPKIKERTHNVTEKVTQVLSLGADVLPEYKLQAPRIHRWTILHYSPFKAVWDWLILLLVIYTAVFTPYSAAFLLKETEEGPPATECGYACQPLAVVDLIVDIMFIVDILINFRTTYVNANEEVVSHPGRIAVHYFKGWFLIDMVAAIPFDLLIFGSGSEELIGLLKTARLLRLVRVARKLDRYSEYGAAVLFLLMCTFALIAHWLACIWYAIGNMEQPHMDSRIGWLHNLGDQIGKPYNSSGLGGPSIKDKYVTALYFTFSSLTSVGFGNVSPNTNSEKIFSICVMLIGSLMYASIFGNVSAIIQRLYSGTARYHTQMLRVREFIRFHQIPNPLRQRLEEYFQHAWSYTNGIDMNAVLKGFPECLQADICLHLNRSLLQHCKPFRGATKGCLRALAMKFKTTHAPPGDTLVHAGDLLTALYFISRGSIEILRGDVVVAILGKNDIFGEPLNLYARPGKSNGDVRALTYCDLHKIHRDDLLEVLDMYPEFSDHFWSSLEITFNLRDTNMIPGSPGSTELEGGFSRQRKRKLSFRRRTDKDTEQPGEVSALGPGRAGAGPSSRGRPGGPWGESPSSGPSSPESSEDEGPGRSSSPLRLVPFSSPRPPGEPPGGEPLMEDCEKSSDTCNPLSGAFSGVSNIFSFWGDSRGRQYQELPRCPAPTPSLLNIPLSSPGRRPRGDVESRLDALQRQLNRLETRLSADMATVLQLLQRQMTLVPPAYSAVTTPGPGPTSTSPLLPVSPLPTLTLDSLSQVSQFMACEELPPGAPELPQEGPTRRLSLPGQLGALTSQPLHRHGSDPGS
Chain of Sodium channel protein type 5 subunit alpha (Q14524 whole entry): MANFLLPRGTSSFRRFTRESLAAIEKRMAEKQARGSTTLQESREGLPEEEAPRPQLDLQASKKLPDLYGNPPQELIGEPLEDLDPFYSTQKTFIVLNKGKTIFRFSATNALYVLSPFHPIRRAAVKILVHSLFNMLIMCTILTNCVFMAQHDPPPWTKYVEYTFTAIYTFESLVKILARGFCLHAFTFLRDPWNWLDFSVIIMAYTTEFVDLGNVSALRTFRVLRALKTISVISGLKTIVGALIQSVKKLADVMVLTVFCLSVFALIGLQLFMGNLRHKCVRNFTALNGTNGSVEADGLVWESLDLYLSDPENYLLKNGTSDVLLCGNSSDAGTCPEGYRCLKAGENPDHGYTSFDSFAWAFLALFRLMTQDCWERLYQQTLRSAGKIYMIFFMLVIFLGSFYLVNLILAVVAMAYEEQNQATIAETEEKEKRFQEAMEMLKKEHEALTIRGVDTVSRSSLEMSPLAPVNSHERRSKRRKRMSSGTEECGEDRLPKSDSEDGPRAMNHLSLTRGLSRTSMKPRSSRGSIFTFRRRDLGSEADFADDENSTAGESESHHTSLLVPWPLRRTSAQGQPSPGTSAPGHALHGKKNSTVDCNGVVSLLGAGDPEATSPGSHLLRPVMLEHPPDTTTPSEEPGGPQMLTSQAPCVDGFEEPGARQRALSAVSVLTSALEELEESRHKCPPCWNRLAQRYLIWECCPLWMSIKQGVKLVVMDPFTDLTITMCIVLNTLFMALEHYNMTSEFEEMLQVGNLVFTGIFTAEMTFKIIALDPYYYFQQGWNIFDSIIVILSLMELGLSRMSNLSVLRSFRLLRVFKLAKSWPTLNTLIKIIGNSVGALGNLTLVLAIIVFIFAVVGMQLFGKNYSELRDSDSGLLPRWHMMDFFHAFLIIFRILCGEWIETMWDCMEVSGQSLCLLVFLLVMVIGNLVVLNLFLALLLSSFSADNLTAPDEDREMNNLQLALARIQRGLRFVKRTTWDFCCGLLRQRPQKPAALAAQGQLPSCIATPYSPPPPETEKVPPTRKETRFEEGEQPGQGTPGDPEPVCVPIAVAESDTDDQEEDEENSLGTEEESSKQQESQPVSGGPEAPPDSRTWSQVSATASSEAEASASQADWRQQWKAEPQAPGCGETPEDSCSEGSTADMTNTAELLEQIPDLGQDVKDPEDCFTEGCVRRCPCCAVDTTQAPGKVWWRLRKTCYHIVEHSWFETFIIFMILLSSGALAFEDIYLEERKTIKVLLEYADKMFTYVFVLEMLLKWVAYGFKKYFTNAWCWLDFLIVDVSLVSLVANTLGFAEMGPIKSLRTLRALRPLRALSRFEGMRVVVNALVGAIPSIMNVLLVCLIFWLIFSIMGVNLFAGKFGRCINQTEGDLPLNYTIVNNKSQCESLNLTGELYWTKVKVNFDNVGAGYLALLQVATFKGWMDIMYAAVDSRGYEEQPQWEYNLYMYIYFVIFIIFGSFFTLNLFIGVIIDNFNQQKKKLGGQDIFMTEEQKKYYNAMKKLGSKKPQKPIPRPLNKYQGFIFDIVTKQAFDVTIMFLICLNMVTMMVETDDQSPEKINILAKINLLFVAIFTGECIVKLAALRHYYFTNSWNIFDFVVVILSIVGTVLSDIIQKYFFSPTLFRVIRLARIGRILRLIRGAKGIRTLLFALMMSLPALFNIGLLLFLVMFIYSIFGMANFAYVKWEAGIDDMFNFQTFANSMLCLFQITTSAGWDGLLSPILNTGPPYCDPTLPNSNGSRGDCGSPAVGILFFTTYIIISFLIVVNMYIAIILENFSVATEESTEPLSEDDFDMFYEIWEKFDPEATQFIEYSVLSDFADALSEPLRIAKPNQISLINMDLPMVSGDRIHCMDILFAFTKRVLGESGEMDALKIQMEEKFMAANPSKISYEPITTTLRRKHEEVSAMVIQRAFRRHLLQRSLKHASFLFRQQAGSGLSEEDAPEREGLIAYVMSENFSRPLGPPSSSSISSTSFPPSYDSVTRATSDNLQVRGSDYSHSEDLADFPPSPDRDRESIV
Chain of Melanin-concentrating hormone receptor 2 (Q969V1 whole entry): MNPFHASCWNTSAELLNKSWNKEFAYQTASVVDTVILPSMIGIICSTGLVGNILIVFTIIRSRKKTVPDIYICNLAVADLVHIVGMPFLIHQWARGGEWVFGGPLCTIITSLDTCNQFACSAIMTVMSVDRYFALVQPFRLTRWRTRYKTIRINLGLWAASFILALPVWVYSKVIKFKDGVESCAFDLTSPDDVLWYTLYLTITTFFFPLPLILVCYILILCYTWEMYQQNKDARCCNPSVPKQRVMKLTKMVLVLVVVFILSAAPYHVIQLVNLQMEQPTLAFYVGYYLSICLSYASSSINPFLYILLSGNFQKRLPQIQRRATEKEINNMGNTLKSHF

SMILES: O=C(CN1CCN(Cc2ccn(-c3ccc(C(F)(F)F)cn3)c2)CC1)NC(c1ccc(F)cc1)c1ccc(F)cc1
- IC50 [4]: 800 nM
- IC50 [1]: 55 nM
- pKa [2]: 6.5

SMILES: COCC(O)CN(Cc1ccc(F)cc1)C(=O)CC1CCN(Cc2ccc(-c3ccc(Cl)cc3)o2)CC1 (stereo not given)
- IC50 [4]: 1090 nM
- IC50 [1]: 150 nM

SMILES: Cn1cccc1CNC(=O)CC1CCN(Cc2ccn(-c3ccc(C(F)(F)F)cc3)c2)CC1
- IC50 [1]: 313 nM

SMILES: CN(CCC(=O)N1CCCC1)C(=O)CC1CCN(Cc2ccn(-c3ccc(C(F)(F)F)cc3)c2)CC1
- IC50 [1]: 142 nM

SMILES: O=C(CC1CCN(Cc2ccc(-c3ccc(Cl)cc3)o2)CC1)NCC(O)C(F)(F)F (stereo not given)
- IC50 [4]: 1020 nM
- IC50 [1]: 815 nM

SMILES: O=C(C1CCCCN1C(=O)CC1CCN(Cc2ccn(-c3ccc(C(F)(F)F)cc3)c2)CC1)N1CCCC1 (stereo not given)
- IC50 [1]: 66 nM

SMILES: O=C(NCc1ccc(Cl)cc1Cl)C1CCN(Cc2ccn(-c3ccc(C(F)(F)F)cn3)c2)CC1
- IC50 [7]: 3500 nM
- IC50 [1]: 444 nM
- pKa [2]: 8.3

SMILES: O=C(NCCc1ccccn1)C1CCN(Cc2ccn(-c3ccc(C(F)(F)F)cc3)c2)CC1
- IC50 [4]: 10000 nM
- IC50 [1]: 339 nM

SMILES: Cc1nccn1CC(NC(=O)CC1CCN(Cc2ccn(-c3ccc(C(F)(F)F)cc3)c2)CC1)c1ccccc1 (stereo not given)
- IC50 [4]: 26600 nM
- IC50 [1]: 65 nM

SMILES: O=C(NCc1c(O)cc(Cl)cc1Cl)C1CCN(Cc2ccn(-c3ccc(C(F)(F)F)cc3)c2)CC1
- IC50 [1]: 144 nM

SMILES: O=C(CC1CCN(Cc2ccn(-c3ccc(C(F)(F)F)cc3)c2)CC1)N1CCN(C(=O)N2CCCC2)CC1
- IC50 [4]: 14000 nM
- IC50 [1]: 417 nM

SMILES: O=C(CC1CCN(Cc2ccn(-c3ccc(C(F)(F)F)cc3)c2)CC1)N1CCOC(C(=O)N2CCCC2)C1 (stereo not given)
- IC50 [1]: 173 nM

SMILES: O=C(CC1CCN(Cc2ccn(-c3ccc(C(F)(F)F)cc3)c2)CC1)N1CCCC(C(=O)N2CCCC2)C1 (stereo not given)
- IC50 [4]: 31000 nM
- IC50 [1]: 71 nM

SMILES: CC(NC(=O)CC1CCN(Cc2ccn(-c3ccc(C(F)(F)F)cc3)c2)CC1)c1ccc(=O)[nH]c1 (stereo not given)
- IC50 [4]: > 31600 nM
- IC50 [1]: 67 nM

SMILES: O=C(CC1CCN(Cc2ccc(-c3ccc(Cl)cc3)o2)CC1)N1CCCC(CO)C1 (stereo not given)
- IC50 [4]: 2340 nM
- IC50 [1]: 597 nM

Molecules with a lower IC50 [1], results first:

- IC50 [1]: 41 nM
SMILES: O=C(CC1CCN(Cc2ccn(-c3ccc(C(F)(F)F)cc3)c2)CC1)NC(c1ccccc1)c1ccccn1 (stereo not given)
- IC50 [4]: 2300 nM

- IC50 [1]: 40 nM
SMILES: O=C(NCC1(O)CCCCC1)C1CCN(Cc2ccn(-c3ccc(C(F)(F)F)cc3)c2)CC1
- IC50 [4]: 11700 nM

- IC50 [1]: 39 nM
- pKa [2]: 9.2
SMILES: O=C(NC1CCN(Cc2ccn(-c3ccc(C(F)(F)F)cc3)c2)CC1)NC(c1ccccc1)c1ccccc1
- IC50 [4]: 3800 nM

- IC50 [1]: 37 nM
SMILES: CCN(CC)C(=O)C1CCCN(C(=O)CC2CCN(Cc3ccn(-c4ccc(C(F)(F)F)cc4)c3)CC2)C1 (stereo not given)
- IC50 [4]: 16000 nM

- IC50 [1]: 30 nM
SMILES: O=C(NCc1ccc(O)cc1Cl)C1CCN(Cc2ccn(-c3ccc(C(F)(F)F)cc3)c2)CC1

- IC50 [1]: 28 nM
SMILES: O=C(CC1CCN(Cc2ccn(-c3ccc(C(F)(F)F)cc3)c2)CC1)NC(c1ccc(F)cc1)c1cccnc1 (stereo not given)
- IC50 [4]: 2170 nM

- IC50 [1]: 22 nM
SMILES: O=C(NCc1ccc(Cl)cc1O)C1CCN(Cc2ccn(-c3ccc(C(F)(F)F)cc3)c2)CC1
- IC50 [4]: 1550 nM

- IC50 [1]: 21 nM
SMILES: O=C(CC1CCN(Cc2ccn(-c3ccc(C(F)(F)F)cc3)c2)CC1)NC(c1ccc(F)cc1)c1ccc[n+]([O-])c1 (stereo not given)
- IC50 [4]: > 31600 nM

- IC50 [1]: 17 nM
SMILES: O=C(CC1CCN(Cc2ccn(-c3ccc(C(F)(F)F)cc3)c2)CC1)NC(c1ccncc1)c1ccc(Cl)cc1 (stereo not given)

- IC50 [1]: 17 nM
SMILES: O=C(CC1CCN(Cc2ccn(-c3ccc(C(F)(F)F)cc3)c2)CC1)NC(c1ccccc1)c1cnc[nH]1 (stereo not given)
- IC50 [4]: 11400 nM

- IC50 [1]: 13 nM
- pKa [2]: 9.1
- IC50 [3]: 17 nM
SMILES: O=C(CC1CCN(Cc2ccn(-c3ccc(C(F)(F)F)cn3)c2)CC1)NC(c1ccc(F)cc1)c1ccc(F)cc1
- Activity (Mus musculus): 18.2%

- IC50 [1]: 8 nM
- pKa [2]: 6.2
SMILES: O=C(NCc1ccc(Cl)cc1Cl)N1CCN(Cc2ccn(-c3ccc(C(F)(F)F)cc3)c2)CC1
- IC50 [7]: 1600 nM

- IC50 [5]: 4600 nM
- IC50 [1]: 6 nM
- IC50 [3]: 21 nM
- clearance (Liver microsomes): < 15 µL/min/mg
SMILES: O=C(CC1CCN(Cc2ccn(-c3ccc(C(F)(F)F)cc3)c2)CC1)NC(c1ccc(F)cc1)c1c[nH]c(=O)c(Cl)c1 (stereo not given)
- IC50 [4]: > 31600 nM
- IC50 [6]: > 31600 nM

- IC50 [1]: 5 nM
SMILES: CCCCC(NC(=O)CC1CCN(Cc2ccn(-c3ccc(C(F)(F)F)cc3)c2)CC1)c1ccc(OC)nc1 (stereo not given)
- IC50 [4]: 1000 nM

- IC50 [1]: 4 nM
SMILES: O=C(CC1CCN(Cc2ccn(-c3ccc(C(F)(F)F)cc3)c2)CC1)N(CCCO)Cc1ccc(F)cc1
- IC50 [4]: 630 nM

- IC50 [1]: 2 nM
SMILES: COc1ccc(C(NC(=O)CC2CCN(Cc3ccn(-c4ccc(C(F)(F)F)cc4)c3)CC2)c2ccc(F)cc2)cn1 (stereo not given)
- IC50 [4]: 1750 nM

- IC50 [1]: 2 nM
- IC50 [3]: 25 nM
SMILES: O=C(CC1CCN(Cc2ccn(-c3ccc(C(F)(F)F)cc3)c2)CC1)NC(c1ccc(F)cc1)c1ccc(=O)[nH]c1 (stereo not given)
- IC50 [4]: > 31600 nM

- IC50 [1]: 1 nM
- IC50 [3]: 19 nM
SMILES: CCCCC(NC(=O)CC1CCN(Cc2ccn(-c3ccc(C(F)(F)F)cc3)c2)CC1)c1ccc(=O)[nH]c1 (stereo not given)
